{
  "source": "patent US11883538B2",
  "about": "“Sustained release compositions comprising micronized tolcapone” (Som Innovation Biotech, S.L., priority 2016, dated 2024)",
  "assay": "Determination of tolcapone's particle size (laser analyzer MASTERSIZER 2000, Ph. Eur. 2.9.31)",
  "format": "physicochemical",
  "details": "wet dispersion in water for injection",
  "description": "Determination of Tolcapone's Particle Size\nParticle size measurement (Dv,0.1, Dv,05, Dv,0.9 and Dv,1.0) may be determined according to the general method described in section 2.9.31 of the European Pharmacopeia in particular using a particle size laser analyzer MASTERSIZER 2000 from Malvern featuring a wet dispersion unit HYDRO 2000 SM for small volumes of sample.\nMaterial: • Sample: Tolcapone suspension • Refraction index: 1.59 (default) • Dispersant: water for injection • Refraction index: 1.33\nCycles: • Measurements for each aliquot: 3 • Lag time: 12 s • Pump stirring velocity: 2500 rpm\nMeasuring Time: • Measure: 12 s (in triplicates) • Measure snaps: 12000 • Background: 10 s • Background snaps: 10000\nThree readings are made for each sample.\nThus, Dv,0.9 lower than 54.33 μm that 90% of the volume of the particles is in particles which are smaller 54.33 μm.",
  "data": [
    {"molecule": "Cc1ccc(C(=O)c2cc(O)c(O)c([N+](=O)[O-])c2)cc1", "note": "[micronized tolcapone, (3,4-dihydroxy-5-nitrophenyl)(4-methylphenyl)methanone]", "values": [
      {"measurement": "Dv,0.1", "value": "<6.09", "unit": "μm"},
      {"measurement": "Dv,0.5", "value": "<17.62", "unit": "μm"},
      {"measurement": "Dv,0.9", "value": "<54.33", "unit": "μm"},
      {"measurement": "Dv,1.0", "value": "<316.23", "unit": "μm"}
    ]},
    {"molecule": "Cc1ccc(C(=O)c2cc(O)c(O)c([N+](=O)[O-])c2)cc1", "note": "[non-micronized tolcapone, (3,4-dihydroxy-5-nitrophenyl)(4-methylphenyl)methanone]", "values": [
      {"measurement": "Dv,0.1", "value": "<22.45", "unit": "μm"},
      {"measurement": "Dv,0.5", "value": "<87.23", "unit": "μm"},
      {"measurement": "Dv,0.9", "value": "<307.86", "unit": "μm"},
      {"measurement": "Dv,1.0", "value": "<1096.48", "unit": "μm"}
    ]}
  ]
}
